A word on the IC50: it is the point on the concentration scale where inhibition reaches its midpoint. What is called pEC50 is the EC50 on a negative log10 scale, so that one unit is a factor of ten. High values mean a low EC50, low ones a high EC50.

14 compounds from ChEMBL document CHEMBL1130390, “Design and synthesis of novel imidazole-substituted dipeptide amides as potent and selective inhibitors of Candida albicans myristoylCoA:protein N-myristoyltransferase and identification of related tripeptide inhibitors with mechanism-based antifungal activity” (J Med Chem, 1997) can be followed below.

pEC50: −log10 of the molar value. Bounds are passed on as bounds.

In assay [1] the target is Peptide N-myristoyltransferase (Candida albicans).
For assay [2], the target named is T1, Peptide N-myristoyltransferase (Homo sapiens, UniProt P30419+O60551).
T1 sequence (P30419 whole entry): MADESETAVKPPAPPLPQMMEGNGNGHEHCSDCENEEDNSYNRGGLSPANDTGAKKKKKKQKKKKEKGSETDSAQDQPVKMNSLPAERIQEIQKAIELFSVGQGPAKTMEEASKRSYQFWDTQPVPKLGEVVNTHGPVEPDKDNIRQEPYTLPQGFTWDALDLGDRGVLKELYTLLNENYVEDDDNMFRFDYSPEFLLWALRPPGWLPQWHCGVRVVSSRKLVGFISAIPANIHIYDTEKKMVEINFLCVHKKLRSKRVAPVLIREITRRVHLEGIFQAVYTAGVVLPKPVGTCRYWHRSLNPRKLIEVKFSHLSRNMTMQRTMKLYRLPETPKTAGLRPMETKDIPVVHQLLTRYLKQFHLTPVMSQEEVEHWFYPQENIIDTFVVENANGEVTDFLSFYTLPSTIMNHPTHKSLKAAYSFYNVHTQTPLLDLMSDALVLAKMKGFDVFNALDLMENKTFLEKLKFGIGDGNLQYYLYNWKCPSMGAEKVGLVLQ
T1 sequence (O60551 whole entry): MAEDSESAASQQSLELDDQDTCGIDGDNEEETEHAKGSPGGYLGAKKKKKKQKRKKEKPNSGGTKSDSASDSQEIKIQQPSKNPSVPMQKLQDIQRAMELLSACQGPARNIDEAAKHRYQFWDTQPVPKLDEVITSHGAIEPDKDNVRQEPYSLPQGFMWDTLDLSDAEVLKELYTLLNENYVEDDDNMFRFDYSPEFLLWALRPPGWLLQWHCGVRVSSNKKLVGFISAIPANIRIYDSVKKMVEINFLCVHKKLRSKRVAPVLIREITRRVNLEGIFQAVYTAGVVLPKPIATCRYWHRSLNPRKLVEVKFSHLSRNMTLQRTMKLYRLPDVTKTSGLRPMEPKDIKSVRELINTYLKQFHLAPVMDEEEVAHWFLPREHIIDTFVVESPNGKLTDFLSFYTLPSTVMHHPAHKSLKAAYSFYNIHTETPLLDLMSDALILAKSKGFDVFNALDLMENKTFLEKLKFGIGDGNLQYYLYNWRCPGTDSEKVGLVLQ
Put plainly: Inhibition activity against N-myristoyltransferase (NMT) of human. The format is protein assay.

In the next assay the test system is Cryptococcus neoformans. Kind of assay: Growth inhibitory activity against Cryptococcus neoformans. The format is functional, organism-based.
Assay [3] concerns Candida albicans. Kind of assay: Growth inhibitory activity against candida albicans. Format: functional, organism-based.
Assay [4] has as its system Candida albicans. Put plainly: tested to obtain the effective concentration to inhibit candida albicans. Format: functional, organism-based.

As to `NCCCC[C@H](NC(=O)[C@H](CO)NC(=O)Cc1ccc(CCCCn2ccnc2)cc1)C(=O)NCCC1CCCCC1`, in assay [1], the IC50 came to 0.31 µM.
Consider `Cc1nc2ccccc2n1CCCCc1ccc(C(C)C(=O)N[C@@H](CO)C(=O)N[C@@H](CCCCN)C(=O)NCCC2CCCCC2)cc1` (stereo not given in full), for which the IC50 in assay [1] worked out at 0.86 µM; in assay [2] it was 119.5 µM.
For `Cc1nccn1CCCCc1ccc(CC(=O)N[C@@H](CO)C(=O)N[C@@H](CCCCN)C(=O)N[C@@H](CC2CCCCC2)C(=O)O)cc1`, the IC50 in assay [1] is 1.45 µM; in assay [2], 809.5 µM. Also, the figures for the pEC50 with Cryptococcus neoformans and in the assay on Candida albicans [3] were less than 4.00 and 4.29, respectively.
As to `NCCCC[C@H](NC(=O)[C@H](CO)NC(=O)Cc1ccc(CCCCn2ccnc2I)cc1)C(=O)NCCC1CCCCC1`, the IC50 in assay [1] was found to be 1.88 µM.
Consider `Cc1nccn1CCCCc1ccc(CC(=O)N[C@H](CO)C(=O)N[C@H](CCCCN)C(=O)N[C@H](CC2CCCCC2)C(=O)O)cc1`, for which the IC50 in assay [1] and in assay [2] was more than 1000 µM each time. Also, the pEC50 in the assay on Cryptococcus neoformans and with Candida albicans [4] was less than 4.00 each time.
Take `Cc1nccn1CCCCc1ccc(C(C)C(=O)N[C@@H](CO)C(=O)N[C@@H](CCCCN)C(=O)N[C@@H](CC2CCCCC2)C(=O)O)cc1` (stereo not given in full): the IC50 in assay [1] is 0.38 µM; in assay [2], 840 µM. Moreover, the pEC50 in the assay with Cryptococcus neoformans was less than 4.00; in the assay with Candida albicans [4], 4.48.
In the case of `NCCCC[C@H](NC(=O)[C@H](CO)NC(=O)CCCCCCCCn1ccnc1)C(=O)NCCC1CCCCC1`, the IC50 in assay [1] was 5.5 µM.
For the compound `CCc1nccn1CCCCc1ccc(CC(=O)N[C@@H](CO)C(=O)N[C@@H](CCCCN)C(=O)NCCC2CCCCC2)cc1`, the IC50 in assay [1] came out at 0.147 µM; in assay [2], 28.2 µM.
As to `NCCCC[C@H](NC(=O)[C@H](CO)NC(=O)CCCCCCCCCCCn1ccnc1)C(=O)NCCC1CCCCC1`, in assay [1], the IC50 turned out to be 3 µM.
Regarding `NCCCC[C@H](NC(=O)[C@H](CO)NC(=O)CCCCCCCCCn1ccnc1)C(=O)NCCC1CCCCC1`, in assay [1], the IC50 was 3 µM.
Take `CC(C)c1nccn1CCCCc1ccc(CC(=O)N[C@@H](CO)C(=O)N[C@@H](CCCCN)C(=O)NCCC2CCCCC2)cc1`: the figures for the half-inhibitory concentration (IC50) in assay [1] and in assay [2] were 0.2 µM and more than 100 µM, respectively.
With `COC(=O)[C@H](NC(=O)[C@H](CCCCN)NC(=O)[C@H](CO)NC(=O)Cc1ccc(CCCCn2ccnc2C)cc1)C(=O)O`, the IC50 in assay [1] was 0.081 µM; in assay [2], 22.7 µM. In addition, the pEC50 with Cryptococcus neoformans and in the assay on Candida albicans [4] was less than 4.00 each time.
On to `NCCCC[C@H](NC(=O)[C@H](CO)NC(=O)Cc1ccc(CCCCCn2ccnc2)cc1)C(=O)NCCC1CCCCC1`, for which the IC50 in assay [1] amounted to 1.2 µM.
`CC(C(=O)N[C@@H](CO)C(=O)N[C@@H](CCCCN)C(=O)NCCC1CCCCC1)c1ccc(CCCCn2ccnc2Cl)cc1` (stereo not given in full): the IC50 came to 2.05 µM in assay [1] and 142 µM in assay [2].
